From US6858579B2, “Anti-inflammatory compounds” (William Harvey Research Limited, priority 2001, dated 2005)
Where no end group is shown, it is not given here.

Experiments:
PMN migration = test: Mouse air-pouch model, zymosan-induced PMN migration; format: in vivo, mice; conditions: for Approximate ED50, inhibition of PMN migration: mouse air-pouch, peptide s.c. 30 min prior to 1 mg zymosan, PMN counted 4 h after zymosan, n=15, P<0.01; for activity in the in vivo animal model of inflammation: mouse air-pouch model, peptide s.c., result in words
Method: Male Swiss Albino mice (20-22 g body weight) were purchased from Interfauna (CFLP strain; Huntingdon, Cambridgeshire, UK) and maintained on a standard chow pellet diet with tap water ad libitum. Animals were used at least one week after arrival.
Air-pouches were formed on the back of the mice by subcutaneous (s.c.) injection of 2.5 ml or air on day […]. Three days after the last air-injection (6-day-old air-pouches) 1 mg of zymosan (in 0.5 ml of sterile saline) was injected locally (Perretti et al., 1996). Zymosan was previously boiled for 30 min in phosphate buffered solution (PBS), extensively washed in the same medium and stored at −20° C. prior to use.
Four hours after the local injection of zymosan, mice were killed by CO2 exposure and the air-pouches washed with 2 ml of PBS containing ethylenediaminetetracetic acid sodium salt (EDTA; 3 mM) and heparin (25 U/ml).
Lavage fluids (essentially the entire 2 ml were consistently recovered) were centrifuged at 200 g for 10 min at 4° C. and cell pellets were resuspended in 2 ml of PBS/EDTA+heparin. The number of PMN was determined, using a Neubauer haematocytometer, after staining (1:10 dilution) with Turk's solution (crystal violet 0.01% w/v in acetic acid 3% v/v).
The following peptides were drawn from the lipocortin 1 N-terminus region: LC12-26 (Ac-[…] (SEQ ID NO:6)), LC12-12 (Ac-AMVSEFLKQAW (SEQ ID NO:4)), LC1 13-25 (FIENEEQEYVQTV (SEQ ID NO:7)), LC12-6(Ac-AMVSE ((SEQ ID NO 3))), or scramble LC12-6 (AC-SVEMA (SEQ ID NO:5)) were administered s.c. 30 min prior to injection of 1 mg zymosan into the air-pouches. Control mice were treated with sterile PBS (100 μl s.c.).

A549 cell line = conditions: in vitro A549 model; previous publications (Croxtall et al., 1993, 1998); result in words; cited from earlier work

| Substance | Approximate ED50, inhibition of PMN migration (PMN migration) | inhibitory effect on A549 cell function (A549 cell line) | activity in the in vivo animal model of inflammation (PMN migration) |
| --- | --- | --- | --- |
| Ac-AMVSEFLKQAWFIENEEQEYVQTVK (SEQ ID NO:6) [LC12-26, reference compound] | ~45 nmol |  |  |
| EQEYVQTV (SEQ ID NO:2) [LC118-25, lipocortin 1 fragment, residues 18-25] |  | significant inhibitory activity |  |
| Ac-AMVSE ((SEQ ID NO 3)) [LC12-6, N-acetylated lipocortin 1 fragment, residues 2-6] | ~110 nmol |  | active |
| AC-SVEMA (SEQ ID NO:5) (Ac-SVEMA) [scrambled version of AMVSE, reference compound] |  |  | inactive |
| Ac-AMVSEFLKQAW (SEQ ID NO:4) [LC12-12, N-acetylated lipocortin 1 fragment, residues 2-12] | ~110 nmol |  | active |
